Results on nine molecules are retold here after US11542304B2, “Multimeric bicyclic peptide ligands” (BicycleTx Limited, priority 2018, dated 2023).

One series concerns the target CD137 (Homo sapiens, UniProt Q07011). Briefly: CD137 Promega reporter cell activity assay (NF-κB luciferase in Jurkat cells). To be noted: for Average Fold EC50 Improvement relative to CD137L: Average EC50 for CD137L = 14.2 nM; for Average Relative Fold Induction relative to CD137L: Average fold induction for CD137L = 4.0.
A short description of series [1]: Pharmacokinetics of Bicycle multimers in CD-1 mice. To be noted: 5 mg/kg IV, male CD-1 mice; FIGS. 5A and 5B.
Procedure: Male CD-1 mice were dosed with 5 mg/kg of each Bicycle multimer formulated in 25 mM Histidine HCl, 10% sucrose pH 7 via tail vein injection. Serial bleeding (about 80 μL blood/time point) was performed via submandibular or saphenous vein at each time point. All blood samples were immediately transferred into prechilled microcentrifuge tubes containing 2 μL K2-EDTA (0.5M) as anti-coagulant and placed on wet ice. Blood samples were immediately processed for plasma by centrifugation at approximately 4° C., 3000 g. The precipitant including internal standard was immediately added into the plasma, mixed well and centrifuged at 12,000 rpm, 4° C. for 10 minutes. The supernatant was transferred into pre-labeled polypropylene microcentrifuge tubes, and then quick-frozen over dry ice. The samples were stored at 70° C. or below as needed until analysis. 7.5 μL of the supernatant samples were directly injected for LC-MS/MS analysis using an Orbitrap Q Exactive in positive ion mode to determine the concentrations of Bicycle multimer. Plasma concentration versus time data were analyzed by non-compartmental approaches using the Phoenix WinNonlin 6.3 software program. C0, Cl, Vdss, T1/2, AUC(0-last), AUC(0-inf), MRT(0-last), MRT(0-inf) and graphs of plasma concentration versus time profile were reported.
For series [2] the following is noted: clinical testing, cited from earlier work.

pEC50: −log10 of the molar value. Starred links: 1 amine or outer side, 2 acyl side, 3 side chain; linkers in the order of their positions; H or OH if unused. Positions of bridges follow the written chain, without caps; N, C: chain ends. Non-standard residues stand in square brackets, D forms with d. Chains are numbered I, II in the order given. X2 = O=C(CCOCCN(CCOCCC(=O)NCCOCCOCCOCCOCCOCCOCCOCCOCCOCCOCCOCCOCCOCCOCCOCCOCCOCCOCCOCCOCCOCCOCCOCCn1nnc2c1CCC1C(CC2)C1COC(=O)[*:2])CCOCCC(=O)NCCOCCOCCOCCOCCOCCOCCOCCOCCOCCOCCOCCOCCOCCOCCOCCOCCOCCOCCOCCOCCOCCOCCOCCn1nnc2c1CCC1C(CC2)C1COC(=O)[*:3])NCCOCCOCCOCCOCCOCCOCCOCCOCCOCCOCCOCCOCCOCCOCCOCCOCCOCCOCCOCCOCCOCCOCCOCCn1nnc2c1CCC1C(CC2)C1COC(=O)[*:1]; X3 = O=C(CCOCCN(CCOCCC(=O)NCCOCCOCCOCCOCCOCCOCCOCCOCCOCCOCCn1nnc2c1CCC1C(CC2)C1COC(=O)[*:2])CCOCCC(=O)NCCOCCOCCOCCOCCOCCOCCOCCOCCOCCOCCn1nnc2c1CCC1C(CC2)C1COC(=O)[*:3])NCCOCCOCCOCCOCCOCCOCCOCCOCCOCCOCCn1nnc2c1CCC1C(CC2)C1COC(=O)[*:1]; X1 = O=C(CCOCCN(CCOCCC(=O)NCCOCCOCCOCCOCCOCCOCCOCCOCCOCCOCCn1cc(CCC(=O)[*:2])nn1)CCOCCC(=O)NCCOCCOCCOCCOCCOCCOCCOCCOCCOCCOCCn1cc(CCC(=O)[*:3])nn1)NCCOCCOCCOCCOCCOCCOCCOCCOCCOCCOCCn1cc(CCC(=O)[*:1])nn1; TATA = O=C(CC[*:1])N1CN(C(=O)CC[*:2])CN(C(=O)CC[*:3])C1; Nle = CCCC[C@H](N)C(=O)O

The pEC50 is −log10 of the EC50, conventionally taken in molar units.

Sequence of CD137 (Q07011 24-255): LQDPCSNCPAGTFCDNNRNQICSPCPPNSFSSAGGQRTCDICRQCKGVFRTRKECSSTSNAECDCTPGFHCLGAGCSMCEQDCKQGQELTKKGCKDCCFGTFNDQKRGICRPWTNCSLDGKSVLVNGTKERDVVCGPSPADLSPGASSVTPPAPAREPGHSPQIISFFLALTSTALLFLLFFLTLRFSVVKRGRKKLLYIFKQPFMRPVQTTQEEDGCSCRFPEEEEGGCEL

`CCCC[C@@H]1NC(=O)[C@H](Cc2ccc(O)cc2)NC(=O)[C@@H]2CCCN2C(=O)[C@H](CC(=O)O)NC(=O)[C@H](C)NC(=O)[C@H](Cc2ccccc2)NC(=O)[C@@H]2CSCCC(=O)N3CN(CN(C3)C(=O)CCSC[C@@H](C(=O)N[C@@H](C)C(N)=O)NC1=O)C(=O)CCSC[C@H](NC(=O)[C@H](C)NC(C)=O)C(=O)N[C@@H]([C@@H](C)CC)C(=O)N[C@@H](CCC(=O)O)C(=O)N[C@@H](CCCCNC(=O)OCC1C3CCc4nnn(CCOCCOCCOCCOCCOCCOCCOCCOCCOCCOCCNC(=O)CCOCC(COCCC(=O)NCCOCCOCCOCCOCCOCCOCCOCCOCCOCCOCCn5nnc6c5CCC5C(CC6)C5COC(=O)NCCCC[C@@H]5NC(=O)[C@H](CCC(=O)O)NC(=O)[C@H]([C@@H](C)CC)NC(=O)[C@@H](NC(=O)[C@H](C)NC(C)=O)CSCCC(=O)N6CN7CN(C6)C(=O)CCSC[C@H](NC(=O)[C@H](Cc6ccc(O)cc6)NC(=O)[C@H](CCC(N)=O)NC(=O)CNC5=O)C(=O)N[C@@H](Cc5ccccc5)C(=O)N[C@@H](C)C(=O)N[C@@H](CC(=O)O)C(=O)N5CCC[C@H]5C(=O)N[C@@H](Cc5ccc(O)cc5)C(=O)N[C@@H](CCCC)C(=O)N[C@H](C(=O)N[C@@H](C)C(N)=O)CSCCC7=O)(COCCC(=O)NCCOCCOCCOCCOCCOCCOCCOCCOCCOCCOCCn5nnc6c5CCC5C(CC6)C5COC(=O)NCCCC[C@@H]5NC(=O)[C@H](CCC(=O)O)NC(=O)[C@H]([C@@H](C)CC)NC(=O)[C@@H](NC(=O)[C@H](C)NC(C)=O)CSCCC(=O)N6CN7CN(C6)C(=O)CCSC[C@H](NC(=O)[C@H](Cc6ccc(O)cc6)NC(=O)[C@H](CCC(N)=O)NC(=O)CNC5=O)C(=O)N[C@@H](Cc5ccccc5)C(=O)N[C@@H](C)C(=O)N[C@@H](CC(=O)O)C(=O)N5CCC[C@H]5C(=O)N[C@@H](Cc5ccc(O)cc5)C(=O)N[C@@H](CCCC)C(=O)N[C@H](C(=O)N[C@@H](C)C(N)=O)CSCCC7=O)COCCC(=O)NCCOCCOCCOCCOCCOCCOCCOCCOCCOCCOCCn5nnc6c5CCC5C(CC6)C5COC(=O)NCCCC[C@@H]5NC(=O)[C@H](CCC(=O)O)NC(=O)[C@H]([C@@H](C)CC)NC(=O)[C@@H](NC(=O)[C@H](C)NC(C)=O)CSCCC(=O)N6CN7CN(C6)C(=O)CCSC[C@H](NC(=O)[C@H](Cc6ccc(O)cc6)NC(=O)[C@H](CCC(N)=O)NC(=O)CNC5=O)C(=O)N[C@@H](Cc5ccccc5)C(=O)N[C@@H](C)C(=O)N[C@@H](CC(=O)O)C(=O)N5CCC[C@H]5C(=O)N[C@@H](Cc5ccc(O)cc5)C(=O)N[C@@H](CCCC)C(=O)N[C@H](C(=O)N[C@@H](C)C(N)=O)CSCCC7=O)c4CCC31)C(=O)NCC(=O)N[C@@H](CCC(N)=O)C(=O)N[C@@H](Cc1ccc(O)cc1)C(=O)N2` (some centres unmarked) [BCY8150]: at CD137, the “Average Fold EC50 Improvement relative to CD137L” value came to 4.14 and the “Average Relative Fold Induction relative to CD137L” value stood at 0.77.

For the molecule “ACIEEGQYCFADPYMCA [BCY592, reference compound]”, the “CD137 agonism / activation in reporter cells (in words)” value with CD137 (FIGS. 1 to 3 and 15) is on record as “no detectable activity”.

With “CD137L: the natural ligand (CD137L) for activation of CD137”, the pEC50 in the series with CD137 (read-out: Average EC50, reference substance of Table 4A / 4B) was 7.85. The Average fold induction entry with CD137 (reference substance of Table 4A / 4B) was “**Average fold induction for CD137L = 4.0”.

On to “I: Ac-ACIEEGKYCFADPY[Nle]CA-NH2 / II: Ac-ACIEEGKYCFADPY[Nle]CA-NH2 / III: Ac-ACIEEGKYCFADPY[Nle]CA-NH2 (linker I:2-I:9-I:16, II:2-II:9-II:16, III:2-III:9-III:16 via TATA; linker I:7-II:7-III:7 via X3) [BCY8151]”, for which, on CD137, the “Average Fold EC50 Improvement relative to CD137L” value came out at 213.05 and the “Average Relative Fold Induction relative to CD137L” value stood at 0.49.

As to “I: Ac-ACIEEGQYCKADPY[Nle]CA-NH2 / II: Ac-ACIEEGQYCKADPY[Nle]CA-NH2 / III: Ac-ACIEEGQYCKADPY[Nle]CA-NH2 (linker I:2-I:9-I:16, II:2-II:9-II:16, III:2-III:9-III:16 via TATA; linker I:10-II:10-III:10 via X2) [BCY8146]”, at CD137, the “Average Fold EC50 Improvement relative to CD137L” value was found to be 5.11 and the “Average Relative Fold Induction relative to CD137L” value was determined as 0.83.

In the case of “I: Ac-ACIEEGQYCKADPY[Nle]CA-NH2 / II: Ac-ACIEEGQYCKADPY[Nle]CA-NH2 / III: Ac-ACIEEGQYCKADPY[Nle]CA-NH2 (linker I:2-I:9-I:16, II:2-II:9-II:16, III:2-III:9-III:16 via TATA; linker I:10-II:10-III:10 via X3) [BCY8145]”, at CD137, the “Average Fold EC50 Improvement relative to CD137L” value is 5.93 and the “Average Relative Fold Induction relative to CD137L” value is listed as 0.95.

Turning to “I: Ac-ACIEKGQYCFADPY[Nle]CA-NH2 / II: Ac-ACIEKGQYCFADPY[Nle]CA-NH2 / III: Ac-ACIEKGQYCFADPY[Nle]CA-NH2 (linker I:2-I:9-I:16, II:2-II:9-II:16, III:2-III:9-III:16 via TATA; linker I:5-II:5-III:5 via X1) [BCY7835]”, in series [1], the “systemic elimination (plasma concentration after IV dosing)” value is listed as “retain the property of rapid systemic elimination”. Further, the “Average Relative Fold Induction relative to CD137L” value on CD137 turned out to be 1.04.

urelumab: in series [2], the “doses at which hepatoxicity was observed” value is listed as not below 1 mg/kg and the single agent activity result is “single agent, partial responses in melanoma”.

Consider utomilumab, for which the “dose up to which hepatotoxicity was not observed” value in series [2] (solid tumors) was “up to 5 mg/kg”. The single agent activity entry in series [2] was “little or no single agent activity”.
